According to patent US10988474B2, “Compounds acting at multiple prostaglandin receptors giving a general anti-inflammatory response” (ALLERGAN, INC., priority 2011, dated 2021):

Tests used:
Type in all cases: cell-based
[1] = target: T1, human prostanoid EP2 receptor (Homo sapiens, UniProt P43116); assay: FLIPR Ca2+ signaling PG antagonist assay, EP2 stable cell line; settings: HEK-293 EBNA cells, human recombinant EP2 with chimeric Gqs; standard agonist PGE2
T1 construct: expressed in transfected cells
How it was run: (§1)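 HEK-293 EBNA stable lines; EP2 co-expressed with chimeric Gqs, EP1/IP/TP with no exogenous G protein. Fluo-4AM-loaded cells pretreated 4.5 min at 37 °C with compound (0.1–30 μM; TP 0.067–1 μM), then standard agonist (PGE2, cicaprost, U-46619) 10^−11–10^−5 M (TP 10^−12–10^−6 M); peak fluorescence read 3.5 min, nonlinear regression.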

[2] = target: T2, human prostanoid EP3 receptor (Homo sapiens, UniProt P43115); assay: FLIPR Ca2+ signaling PG antagonist assay, EP3 stable cell line; settings: HEK-293 EBNA cells, human recombinant EP3 with chimeric Gqi; standard agonist PGE2
T2 construct: expressed in transfected cells
T2 sequence (P43115 1-390): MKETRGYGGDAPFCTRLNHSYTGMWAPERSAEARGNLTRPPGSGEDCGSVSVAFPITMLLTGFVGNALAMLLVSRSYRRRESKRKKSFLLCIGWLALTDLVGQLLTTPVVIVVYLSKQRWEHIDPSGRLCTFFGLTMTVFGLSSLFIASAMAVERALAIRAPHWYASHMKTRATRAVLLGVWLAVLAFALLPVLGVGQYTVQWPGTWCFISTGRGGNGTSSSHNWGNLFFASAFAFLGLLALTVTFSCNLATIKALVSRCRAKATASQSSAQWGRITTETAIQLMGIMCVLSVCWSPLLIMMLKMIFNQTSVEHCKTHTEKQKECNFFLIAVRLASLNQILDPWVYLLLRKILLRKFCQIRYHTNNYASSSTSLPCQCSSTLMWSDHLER
How it was run: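 Stable HEK-293 EBNA lines (DP1 with chimeric Gqs, EP3 with Gqi, EP1 and FP without exogenous G protein) were Fluo-4AM-loaded and pretreated 4.5 min at 37 °C with compound (0.1–30 μM). Agonist (BW 245C for DP1, PGE2 for EP1/EP3, 17-phenyl-PGF2α for FP) was then added at 10^−11–10^−5 M. Peak Ca2+ fluorescence was taken relative to agonist at 10^−6 M.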

[3] = target: T3, human prostanoid EP4 receptor (Homo sapiens, UniProt P35408); assay: FLIPR Ca2+ signaling PG antagonist assay, EP4 stable cell line; settings: HEK-293 EBNA cells, human recombinant EP4 with chimeric Gqs; standard agonist PGE2
T3 construct: expressed in transfected cells
How it was run: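 Antagonism at human EP4 was assessed as a Ca^2+ signal in stable HEK-293 EBNA transfectants carrying chimeric Gqs. Dye-loaded cells in HBSS-HEPES at 37° C received test compound, then a 7-point 10-fold PGE2 series. Fluorescence was excited at 470-495 nm and read at 515-575 nm for 3.5 minutes, with each condition run in triplicate and buffer used as the negative control.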

[4] = target: T4, human prostanoid IP receptor (Homo sapiens, UniProt P43119); assay: FLIPR Ca2+ signaling PG antagonist assay, IP stable cell line; settings: HEK-293 EBNA cells, human recombinant IP, no exogenous G-protein; standard agonist Cicaprost
T4 construct: expressed in transfected cells
How it was run: as §1

[5] = target: T5, human prostanoid TP receptor (Homo sapiens, UniProt P21731); assay: FLIPR Ca2+ signaling PG antagonist assay, TP stable cell line; settings: HEK-293 EBNA cells, human recombinant TP, no exogenous G-protein; standard agonist U-46619
T5 construct: expressed in transfected cells
T5 sequence (P21731 1-343): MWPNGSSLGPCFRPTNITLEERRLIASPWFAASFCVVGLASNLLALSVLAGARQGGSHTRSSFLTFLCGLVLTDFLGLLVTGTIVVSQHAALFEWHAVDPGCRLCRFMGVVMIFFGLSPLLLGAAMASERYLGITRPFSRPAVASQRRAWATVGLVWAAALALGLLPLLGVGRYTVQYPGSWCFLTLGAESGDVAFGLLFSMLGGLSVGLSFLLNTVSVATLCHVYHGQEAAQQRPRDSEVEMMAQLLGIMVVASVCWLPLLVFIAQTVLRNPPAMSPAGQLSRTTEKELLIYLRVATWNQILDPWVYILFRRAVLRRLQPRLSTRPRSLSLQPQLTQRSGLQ
How it was run: as §1

T3 sequence (P35408 whole entry): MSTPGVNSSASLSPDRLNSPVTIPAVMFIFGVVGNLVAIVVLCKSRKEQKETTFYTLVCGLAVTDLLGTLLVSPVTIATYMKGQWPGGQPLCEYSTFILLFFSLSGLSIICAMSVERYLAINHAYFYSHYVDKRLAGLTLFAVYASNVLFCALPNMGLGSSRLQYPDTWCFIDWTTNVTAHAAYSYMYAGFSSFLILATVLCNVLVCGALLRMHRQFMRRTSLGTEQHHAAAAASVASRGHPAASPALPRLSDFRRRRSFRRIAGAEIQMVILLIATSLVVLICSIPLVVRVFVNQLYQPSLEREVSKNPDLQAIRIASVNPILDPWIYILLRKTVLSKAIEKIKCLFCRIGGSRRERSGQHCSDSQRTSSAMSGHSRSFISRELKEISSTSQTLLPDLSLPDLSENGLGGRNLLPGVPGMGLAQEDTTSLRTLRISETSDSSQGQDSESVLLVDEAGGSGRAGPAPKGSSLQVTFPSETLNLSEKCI
T1 sequence (P43116 whole entry): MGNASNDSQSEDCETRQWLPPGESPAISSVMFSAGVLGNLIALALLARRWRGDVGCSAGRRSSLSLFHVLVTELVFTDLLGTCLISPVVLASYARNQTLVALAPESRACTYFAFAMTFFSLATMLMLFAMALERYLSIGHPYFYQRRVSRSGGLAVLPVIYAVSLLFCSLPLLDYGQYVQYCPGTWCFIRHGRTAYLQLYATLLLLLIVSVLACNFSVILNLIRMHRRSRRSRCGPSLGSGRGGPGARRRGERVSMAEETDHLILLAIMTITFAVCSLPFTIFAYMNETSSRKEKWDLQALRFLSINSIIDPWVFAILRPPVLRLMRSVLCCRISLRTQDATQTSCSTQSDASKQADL
T4 sequence (P43119 whole entry): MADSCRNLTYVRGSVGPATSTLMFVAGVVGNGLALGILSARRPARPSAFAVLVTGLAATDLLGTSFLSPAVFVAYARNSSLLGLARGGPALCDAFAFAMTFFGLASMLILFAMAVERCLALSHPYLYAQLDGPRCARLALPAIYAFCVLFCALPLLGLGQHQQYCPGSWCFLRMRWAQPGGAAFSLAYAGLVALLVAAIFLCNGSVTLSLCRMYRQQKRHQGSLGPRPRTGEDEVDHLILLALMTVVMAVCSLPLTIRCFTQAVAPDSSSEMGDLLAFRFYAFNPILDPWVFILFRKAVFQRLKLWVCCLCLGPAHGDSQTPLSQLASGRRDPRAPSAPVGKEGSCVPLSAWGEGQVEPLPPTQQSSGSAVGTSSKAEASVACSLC

SMILES | Kb [1] [nM] | Kb [2] [nM] | Kb [3] [nM] | Kb [4] [nM] | Kb [5] [nM]
CC(C)COc1ccc(Br)cc1Cn1ccc2cc(C(=O)O)cnc21 [Example 72, 1-(5-Bromo-2-Isobutoxy-Benzyl)-1H-Pyrrolo[2,3-B]Pyridine-5-Carboxylic Acid] | ≥ 10000 | ≥ 10000 | 220 | 2000 | 3
CC(C)COc1ccc(Br)cc1Cn1ccc2nc(C(=O)O)ccc21 [Example 73, 1-(5-Bromo-2-Isobutoxy-Benzyl)-1H-Pyrrolo[3,2-B]Pyridine-5-Carboxylic Acid] | ≥ 10000 | ≥ 10000 | ≥ 10000 | 9000 | 8
CC(C)COc1ccc(OC(F)(F)F)cc1Cn1ccc2cc(C(=O)O)cnc21 [Example 74, 1-(2-Isobutoxy-5-Trifluoromethoxy-Benzyl)-1H-Pyrrolo[2,3-B]Pyridine-5-Carboxylic Acid] | ≥ 10000 | 2800 | 440 | 1400 | 20
Cc1cn(Cc2cc(OC(F)(F)F)ccc2OCC(C)C)c2ccc(C(=O)O)cc12 [Example 75, 1-(2-Isobutoxy-5-Trifluoromethoxy-Benzyl)-3-Methyl-1H-Indole-5-Carboxylic Acid] | 6400 | ≥ 10000 | 280 | 4400 | 300
CCC(CC)COc1ccc(OC(F)(F)F)cc1Cn1cc(C)c2cc(C(=O)O)ccc21 [Example 77, 1-[2-(2-Ethyl-Butoxy)-5-Trifluoromethoxy-Benzyl]-3-Methyl-1H-Indole-5-Carboxylic Acid] | 9200 | ≥ 10000 | 1500 | ≥ 10000 | 1100
CCC(CC)COc1ccc(Br)cc1Cn1cnc2cc(C(=O)O)ccc21 [Example 78, 1-[5-Bromo-2-(2-Ethyl-Butoxy)-Benzyl]-1H-Benzoimidazole-5-Carboxylic Acid] | ≥ 10000 | ≥ 10000 | 35 | 3000 | 16
CC(C)COc1ccc(Br)cc1Cn1cnc2cc(C(=O)O)ccc21 [Example 79, 1-(5-Bromo-2-Isobutoxy-Benzyl)-1H-Benzoimidazole-5-Carboxylic Acid] | ≥ 10000 | 8700 | 80 | 7000 | 8
